This note sets out measurements from patent US6608082B1, “Treatment of erectile dysfunction using isoquinoline compound melanocortin receptor ligands” (Lion Bioscience AG, priority 1998, dated 2003).

The target of the assay is T1, MCR-1 (Homo sapiens, UniProt Q01726).
T1 construct: expressed in transfected cells; host or cells: HEK 293
T1 sequence (Q01726 whole entry): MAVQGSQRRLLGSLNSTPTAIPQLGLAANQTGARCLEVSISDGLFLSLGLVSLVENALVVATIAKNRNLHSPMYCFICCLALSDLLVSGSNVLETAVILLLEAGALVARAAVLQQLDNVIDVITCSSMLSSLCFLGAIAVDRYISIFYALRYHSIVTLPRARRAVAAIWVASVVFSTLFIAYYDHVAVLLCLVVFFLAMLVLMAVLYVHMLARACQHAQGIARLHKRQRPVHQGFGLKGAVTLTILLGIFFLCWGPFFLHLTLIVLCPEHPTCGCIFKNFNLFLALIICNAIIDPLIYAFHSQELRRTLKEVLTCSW
The assay can be described thus: Melanocortin receptor binding assay, competition with 125I-HP 467, HEK 293 cells expressing hMCR-1. The note with it: inhibition of binding of 125I-HP 467, HEK 293 cells expressing MCR-1; read-out: MC-1 IC50. Summed up:
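Test compounds compete on intact HEK 293 cells carrying hMCR-1 (2×10^4 per tube) or hMCR-4 (4×10^3 per tube), suspended in PBS, 10% calf serum, 1 mM CaCl2.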
On to `CCCOc1ccc(C2C(CNCCc3ccccc3)c3ccccc3CN2CCCCC(CN)NC)cc1` (stereo not shown) [TRG 2412-7], for which the IC50 (in general, the concentration at which inhibition is half-maximal) was 420 nM.

For `CCCOc1ccc(C2C(CNCCc3ccccc3)c3ccccc3CN2CCCCC(CN)NCCc2ccccc2)cc1` (stereo not shown) [TRG 2412-8], the IC50 was 830 nM.

Take `CCCOc1ccc(C2C(CNCCc3ccccc3)c3ccccc3CN2CCCCC(CN)NCc2ccccc2)cc1` (stereo not shown) [TRG 2412-9]: the IC50 is 570 nM.

Take `CCCCOc1ccc(C2C(CNCCc3ccccc3)c3ccccc3CN2CCCCC(CN)NC)cc1` (stereo not shown) [TRG 2412-10]: the half-inhibitory concentration (IC50) was 310 nM.

In the case of `CCCCOc1ccc(C2C(CNCCc3ccccc3)c3ccccc3CN2CCCCC(CN)NCCc2ccccc2)cc1` (stereo not shown) [TRG 2412-11], the IC50 came to 820 nM.

With `CCCCOc1ccc(C2C(CNCCc3ccccc3)c3ccccc3CN2CCCCC(CN)NCc2ccccc2)cc1` (stereo not shown) [TRG 2412-12], the 50% inhibitory concentration (IC50) was found to be 540 nM.

As for `CCCCCc1ccc(C2C(CNCCc3ccccc3)c3ccccc3CN2CCCCC(CN)NC)cc1` (stereo not shown) [TRG 2412-13], the IC50 was found to be 450 nM.

Regarding `CCCCCc1ccc(C2C(CNCCc3ccccc3)c3ccccc3CN2CCCCC(CN)NCCc2ccccc2)cc1` (stereo not shown) [TRG 2412-14], the IC50 was found to be 880 nM.

Regarding `CCCCCc1ccc(C2C(CNCCc3ccccc3)c3ccccc3CN2CCCCC(CN)NCc2ccccc2)cc1` (stereo not shown) [TRG 2412-15], the IC50 came out at 750 nM.

`CCCCCNc1ccc(C2C(CNCCc3ccccc3)c3ccccc3CN2CCCC(CN)NCc2ccccc2)cc1` (stereo not shown) [TRG 2412-18]: the IC50 worked out at 190 nM.

Regarding `CCOc1ccc(C2C(CNCCc3ccccc3)c3ccccc3CN2CCCC(CN)NC)cc1` (stereo not shown) [TRG 2412-19], the IC50 turned out to be 160 nM.

With `CCOc1ccc(C2C(CNCCc3ccccc3)c3ccccc3CN2CCCC(CN)NCCc2ccccc2)cc1` (stereo not shown) [TRG 2412-20], the IC50 was found to be 150 nM.

For `CCCOc1ccc(C2C(CNCCc3ccccc3)c3ccccc3CN2CCCC(CN)NC)cc1` (stereo not shown) [TRG 2412-22], the IC50 came out at 200 nM.

On to `CCCOc1ccc(C2C(CNCCc3ccccc3)c3ccccc3CN2CCCC(CN)NCCc2ccccc2)cc1` (stereo not shown) [TRG 2412-23], for which the IC50 came out at 350 nM.

Consider `CCCOc1ccc(C2C(CNCCc3ccccc3)c3ccccc3CN2CCCC(CN)NCc2ccccc2)cc1` (stereo not shown) [TRG 2412-24], for which the IC50 was 410 nM.

As to `CCCCOc1ccc(C2C(CNCCc3ccccc3)c3ccccc3CN2CCCC(CN)NCCc2ccccc2)cc1` (stereo not shown) [TRG 2412-26], the IC50 was 200 nM.

For the compound `CCCCOc1ccc(C2C(CNCCc3ccccc3)c3ccccc3CN2CCCC(CN)NCc2ccccc2)cc1` (stereo not shown) [TRG 2412-27], the IC50 is 250 nM.

In the case of `CCCCCc1ccc(C2C(CNCCc3ccccc3)c3ccccc3CN2CCCC(CN)NC)cc1` (stereo not shown) [TRG 2412-28], the IC50 was 270 nM.

Take `CCCCCc1ccc(C2C(CNCCc3ccccc3)c3ccccc3CN2CCCC(CN)NCCc2ccccc2)cc1` (stereo not shown) [TRG 2412-29]: the IC50 was 500 nM.

As for `CNCCNC(CN)CCCCN1Cc2ccccc2C(CNCCc2ccccc2)C1c1ccc(-c2ccccc2)cc1` (stereo not shown) [TRG 2413-1], the IC50 turned out to be 440 nM.

In the case of `CNCCNC(CN)CCCCN1Cc2ccccc2C(CN)C1c1ccc(-c2ccccc2)cc1` (stereo not shown) [TRG 2413-2], the IC50 is 540 nM.

Turning to `CCNc1ccc(C2C(CN)c3ccccc3CN2CCCCC(CN)NCCNC)cc1` (stereo not shown) [TRG 2413-3], the IC50 was 1560 nM.

Regarding `CCNc1ccc(C2C(CNCCc3ccccc3)c3ccccc3CN2CCCCC(CN)NCCNC)cc1` (stereo not shown) [TRG 2413-4], the IC50 was found to be 340 nM.

With `CNC(CN)CCCCN1Cc2ccccc2C(CN)C1c1ccc([N+](=O)[O-])cc1` (stereo not shown) [TRG 2413-6], the IC50 was 6510 nM.

`NCCNC(CN)CCCN1Cc2ccccc2C(CN)C1c1ccc(-c2ccccc2)cc1` (stereo not shown) [TRG 2413-7]: the IC50 stood at 1540 nM.

`CNC(CN)CCCN1Cc2ccccc2C(CN)C1c1ccc(-c2ccccc2)cc1` (stereo not shown) [TRG 2413-8]: the concentration for half-maximal inhibition (IC50) was 1840 nM.

Turning to `CCNc1ccc(C2C(CNC3CCCCC3)c3ccccc3CN2CCCC(CN)NCCc2ccccc2)cc1` (stereo not shown) [TRG 2413-10], the IC50 is 310 nM.

As for `CCNc1ccc(C2C(CN)c3ccccc3CN2CCCC(CN)NCCc2ccccc2)cc1` (stereo not shown) [TRG 2413-11], the IC50 came to 130 nM.
